Common to all, as to format: cell-based
The target of one assay is T1, RIPK3 (Mus musculus, UniProt Q9QZL0).
T1 construct: endogenous, L929sAhFas and MEF cell lysates
The assay is described as follows: streptavidin pull down from cell lysate, immunoblot. For orientation: Immunoblotting shows a protein as a band on a membrane.

Another assay addresses T2, B-Raf (Mus musculus, UniProt P28028).
T2 construct: gene Braf; endogenous, L929sAhFas cell lysate
Described as above.

The next assay concerns the target T3, MLKL (Mus musculus, UniProt Q9D2Y4).
T3 construct: endogenous, L929sAhFas and MEF cell lysates
T3 sequence (Q9D2Y4 1-472): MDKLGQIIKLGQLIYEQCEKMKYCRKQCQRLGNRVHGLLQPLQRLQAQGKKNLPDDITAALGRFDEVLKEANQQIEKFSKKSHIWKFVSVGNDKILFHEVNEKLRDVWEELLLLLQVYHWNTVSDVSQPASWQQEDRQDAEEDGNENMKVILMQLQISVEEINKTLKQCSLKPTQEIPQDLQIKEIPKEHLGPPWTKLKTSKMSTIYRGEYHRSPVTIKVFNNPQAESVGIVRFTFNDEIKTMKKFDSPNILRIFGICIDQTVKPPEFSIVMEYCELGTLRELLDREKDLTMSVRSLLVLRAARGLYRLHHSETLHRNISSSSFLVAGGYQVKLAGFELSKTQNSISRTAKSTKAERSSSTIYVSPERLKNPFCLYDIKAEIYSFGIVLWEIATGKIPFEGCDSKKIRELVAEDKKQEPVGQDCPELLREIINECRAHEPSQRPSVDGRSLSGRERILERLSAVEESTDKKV
The assay is described as follows: streptavidin pull down from lysates, including RIPK1-/- and RIPK3-/- MEF.

The target in a further assay is T4, RIPK1 (Mus musculus, UniProt Q60855).
T4 construct: endogenous, L929sAhFas and MEF cell lysates
T4 sequence (Q60855 1-656): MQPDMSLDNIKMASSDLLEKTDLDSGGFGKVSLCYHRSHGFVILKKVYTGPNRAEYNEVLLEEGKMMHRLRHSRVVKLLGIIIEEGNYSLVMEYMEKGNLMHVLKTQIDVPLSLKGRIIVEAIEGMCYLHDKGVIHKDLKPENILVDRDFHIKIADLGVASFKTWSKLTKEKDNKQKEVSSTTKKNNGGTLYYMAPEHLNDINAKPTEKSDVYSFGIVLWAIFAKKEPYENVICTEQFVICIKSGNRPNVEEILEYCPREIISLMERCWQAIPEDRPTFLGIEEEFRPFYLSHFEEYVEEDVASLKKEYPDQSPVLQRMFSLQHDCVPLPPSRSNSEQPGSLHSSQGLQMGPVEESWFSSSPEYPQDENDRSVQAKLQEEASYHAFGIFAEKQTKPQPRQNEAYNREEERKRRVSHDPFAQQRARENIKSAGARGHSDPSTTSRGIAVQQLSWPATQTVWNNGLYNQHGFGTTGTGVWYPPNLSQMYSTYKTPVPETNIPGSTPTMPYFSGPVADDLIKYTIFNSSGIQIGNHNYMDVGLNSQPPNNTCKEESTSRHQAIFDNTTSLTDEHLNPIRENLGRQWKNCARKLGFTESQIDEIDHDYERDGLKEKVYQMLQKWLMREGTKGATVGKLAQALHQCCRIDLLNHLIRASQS
The assay is described as follows: streptavidin pull down from cell lysate, immunoblot.

Structures are written as SMILES.

T1 sequence (Q9QZL0 whole entry): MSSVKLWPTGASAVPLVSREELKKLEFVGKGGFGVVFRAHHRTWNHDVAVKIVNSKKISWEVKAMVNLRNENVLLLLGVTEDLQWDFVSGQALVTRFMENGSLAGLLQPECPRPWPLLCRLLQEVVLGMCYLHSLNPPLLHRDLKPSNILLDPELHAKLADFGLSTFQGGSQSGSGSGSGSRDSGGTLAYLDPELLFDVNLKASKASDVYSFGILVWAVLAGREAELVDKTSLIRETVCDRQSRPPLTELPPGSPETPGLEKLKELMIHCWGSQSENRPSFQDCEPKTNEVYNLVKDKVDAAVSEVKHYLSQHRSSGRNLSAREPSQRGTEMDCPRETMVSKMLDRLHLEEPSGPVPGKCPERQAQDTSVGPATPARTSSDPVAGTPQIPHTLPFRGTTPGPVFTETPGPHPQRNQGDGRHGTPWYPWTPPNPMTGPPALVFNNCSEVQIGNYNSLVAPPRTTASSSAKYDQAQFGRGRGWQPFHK
T2 sequence (P28028 2-751): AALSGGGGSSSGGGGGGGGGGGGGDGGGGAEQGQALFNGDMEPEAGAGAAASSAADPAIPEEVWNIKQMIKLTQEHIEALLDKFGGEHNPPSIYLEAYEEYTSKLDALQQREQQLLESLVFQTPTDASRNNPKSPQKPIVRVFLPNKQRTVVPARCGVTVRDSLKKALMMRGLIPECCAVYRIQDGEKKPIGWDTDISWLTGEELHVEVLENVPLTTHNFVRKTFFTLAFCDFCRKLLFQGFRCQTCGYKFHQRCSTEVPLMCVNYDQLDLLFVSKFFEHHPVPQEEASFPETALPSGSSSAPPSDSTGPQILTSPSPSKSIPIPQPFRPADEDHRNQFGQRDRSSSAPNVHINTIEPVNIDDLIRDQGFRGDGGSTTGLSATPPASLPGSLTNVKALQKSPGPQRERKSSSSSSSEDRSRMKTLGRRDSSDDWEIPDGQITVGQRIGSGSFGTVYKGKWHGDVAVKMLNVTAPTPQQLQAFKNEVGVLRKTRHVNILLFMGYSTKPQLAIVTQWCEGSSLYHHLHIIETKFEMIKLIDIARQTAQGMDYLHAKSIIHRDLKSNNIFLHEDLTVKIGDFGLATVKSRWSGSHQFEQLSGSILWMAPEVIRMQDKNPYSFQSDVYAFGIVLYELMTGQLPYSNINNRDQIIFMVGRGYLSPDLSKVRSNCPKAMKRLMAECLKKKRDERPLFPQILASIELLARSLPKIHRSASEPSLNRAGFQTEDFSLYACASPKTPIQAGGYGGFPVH

Regarding `O=C(CCCC[C@@H]1SC[C@@H]2NC(=O)N[C@@H]21)NCCOCCOCCNC(=O)c1cc(Oc2ccc(NC(=O)Nc3ccc(Cl)c(C(F)(F)F)c3)cc2)ccn1` [compound 10, biotinylated Sorafenib], the “streptavidin pull down from cell lysate, immunoblot” value was “We show a dose-dependent pull down of RIPK1, RIPK3, MLKL and B-Raf” at RIPK3; “We show a dose-dependent pull down of RIPK1, RIPK3, MLKL and B-Raf” on B-Raf; “We show a dose-dependent pull down of RIPK1, RIPK3, MLKL and B-Raf” at RIPK1. On MLKL, the “streptavidin pull down from lysates, including RIPK1-/- and RIPK3-/- MEF” value is recorded as “Sorafenib is likely to bind independently to RIPK1, RIPK3 or MLKL (Figure 4c), even in the absence of a necroptotic stimulus”.

These data come from PMC5520944 (Cell Death & Disease, 2017).
